Measured values published in patent publication US20260022142A1, “MACROCYCLIC IMMUNOMODULATORS” (Bristol-Myers Squibb Company, priority 2022, published 2026).
Numbered stars: 1 amine (or outer) side, 2 acyl side, 3 side chain; on linkers, the order of the positions; unused ones are H or OH. Bridge positions count the residues as written; N and C are the ends. Square brackets hold non-standard residues; d marks the D form. Peptide text beside a SMILES is read from it. * marks the point of attachment. Phe(3,4-Cl2) = N[C@@H](Cc1ccc(Cl)c(Cl)c1)C(=O)O; Phe(3,4-F2) = N[C@@H](Cc1ccc(F)c(F)c1)C(=O)O; X9 = O=C([C@H](Cc1cc(F)c(F)cc1F)N[*:1])[*:2]; Bip = N[C@@H](Cc1ccc(-c2ccccc2)cc1)C(=O)O; Phe(3-Me) = Cc1cccc(C[C@H](N)C(=O)O)c1; Bta = N[C@@H](Cc1csc2ccccc12)C(=O)O; 4Pal = N[C@@H](Cc1ccncc1)C(=O)O; X1 = O=C(CN1CCN([*:1])CC1)[*:2]; Cha = N[C@@H](CC1CCCCC1)C(=O)O; Cit = NC(=O)NCCC[C@H](N)C(=O)O; 3Abz = Nc1cccc(C(=O)O)c1; Carboxymethyl = O=C(O)C*; Orn = NCCC[C@H](N)C(=O)O; Aun = NCCCCCCCCCCC(=O)O; Dab = NCC[C@H](N)C(=O)O; Dap = NC[C@H](N)C(=O)O; AEEA = NCCOCCOCC(=O)O

Molecular target: T1, PD-1/PD-L1 interaction (PE-labeled human PD-L1-Ig binding to Jurkat cell line over-expressing human PD-1) (Homo sapiens, UniProt Q15116)
T1 construct: expressed in transfected cells; host or cells: Jurkat
Assay: Jurkat-PD-1 Cell Binding High-Content Screening Assay (CBA)
Assay type: cell-based
Details: Jurkat cell line over-expressing human PD-1; PE-labeled PD-L1-Ig 20 nM final; read-out: Jurkat hPD1-PDL1 IC50
Outline: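 First, compound is added to PD-1-expressing Jurkat cells in serum-containing DMEM and left 2 h at 37° C. Next, PE-conjugated PD-L1-Ig is introduced at 20 nM final concentration for 1 hour. Finally, cells are fixed in 4% paraformaldehyde with Hoechst 33342, washed and imaged.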

T1 sequence (Q15116 25-288): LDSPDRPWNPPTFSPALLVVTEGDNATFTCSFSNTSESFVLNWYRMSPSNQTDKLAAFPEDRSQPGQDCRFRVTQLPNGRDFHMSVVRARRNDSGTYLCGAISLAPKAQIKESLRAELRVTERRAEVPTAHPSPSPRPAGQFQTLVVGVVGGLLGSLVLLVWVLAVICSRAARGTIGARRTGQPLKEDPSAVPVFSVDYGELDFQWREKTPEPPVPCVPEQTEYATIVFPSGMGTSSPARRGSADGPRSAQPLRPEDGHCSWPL

| IC50 | SMILES |
| --- | --- |
| 0.0496 µM | CC(C)C[C@H]1NC(=O)[C@H](CCCN)NC(=O)[C@H](Cc2ccc(O)cc2)NC(=O)[C@H](Cc2ccc(-c3ccccc3)cc2)NC(=O)[C@H](Cc2ccc(OCC(=O)O)cc2)NC(=O)[C@H](Cc2ccc(Cl)c(Cl)c2)NC(=O)[C@H](CC(=O)O)NC(=O)[C@H](Cc2ccc(OCC(=O)O)cc2)NC(=O)[C@H](CN)NC(=O)CSC[C@@H](C(=O)N[C@@H](CCN)C(=O)NCCOCCOCC(=O)NCCCCCCCCCCC(=O)O)NC(=O)[C@H](CCCN)NC(=O)[C@H](C(C)C)NC(=O)[C@H](CC2CCCCC2)NC(=O)[C@H](CCN)NC1=O [Compound 1307] ({CH2CO}-[Dap]Y(Carboxymethyl)D[Phe(3,4-Cl2)]Y(Carboxymethyl)[Bip]Y[Orn][dL][Dab][Cha]V[Orn]C[Dab][AEEA][Aun]-OH; thioether N-14) |
| 0.0597 µM | CC(C)C[C@H]1NC(=O)[C@H](CCCN)NC(=O)[C@H](Cc2ccc(O)cc2)NC(=O)[C@H](Cc2ccc(-c3ccccc3)cc2)NC(=O)[C@H](C(C)C)NC(=O)[C@H](Cc2cc(F)c(F)cc2F)NC(=O)[C@H](CC(=O)O)NC(=O)[C@H](Cc2ccc(OCC(=O)O)cc2)NC(=O)[C@H](CN)NC(=O)CSC[C@@H](C(=O)N[C@@H](CCN)C(=O)NCCOCCOCC(=O)NCCCCCCCCCCC(=O)O)NC(=O)[C@H](CCCN)NC(=O)[C@H](C(C)C)NC(=O)[C@H](CC2CCCCC2)NC(=O)[C@H](CCN)NC1=O [Compound 1308] ({CH2CO}-[Dap]Y(Carboxymethyl)D[X9]V[Bip]Y[Orn][dL][Dab][Cha]V[Orn]C[Dab][AEEA][Aun]-OH; thioether N-14) |
| 0.0634 µM | CC(C)C[C@H]1NC(=O)[C@H](CCCN)NC(=O)[C@H](Cc2ccc(O)cc2)NC(=O)[C@H](Cc2ccc(-c3ccccc3)cc2)NC(=O)[C@H](Cc2ccc(OCC(=O)O)cc2)NC(=O)[C@H](Cc2csc3ccccc23)NC(=O)[C@H](CC(=O)O)NC(=O)[C@H](Cc2ccc(OCC(=O)O)cc2)NC(=O)[C@H](CN)NC(=O)CSC[C@@H](C(=O)N[C@@H](CCN)C(=O)NCCOCCOCC(=O)NCCCCCCCCCCC(=O)O)NC(=O)[C@H](CCCN)NC(=O)[C@H](C(C)C)NC(=O)[C@H](CC2CCCCC2)NC(=O)[C@H](CCN)NC1=O [Compound 1309] ({CH2CO}-[Dap]Y(Carboxymethyl)D[Bta]Y(Carboxymethyl)[Bip]Y[Orn][dL][Dab][Cha]V[Orn]C[Dab][AEEA][Aun]-OH; thioether N-14) |
| 0.0646 µM | CC(C)C[C@H]1NC(=O)[C@H](CCCN)NC(=O)[C@H](Cc2ccc(O)cc2)NC(=O)[C@H](Cc2ccc(-c3ccccc3)cc2)NC(=O)[C@H](C(C)C)NC(=O)[C@H](Cc2ccc(Cl)c(Cl)c2)NC(=O)[C@H](CC(=O)O)NC(=O)[C@H](Cc2ccc(OCC(=O)O)cc2)NC(=O)[C@H](CN)NC(=O)CSC[C@@H](C(=O)N[C@@H](CCN)C(=O)NCCOCCOCC(=O)NCCCCCCCCCCC(=O)O)NC(=O)[C@H](CCCN)NC(=O)[C@H](C(C)C)NC(=O)[C@H](CC2CCCCC2)NC(=O)[C@H](CCN)NC1=O [Compound 1310] ({CH2CO}-[Dap]Y(Carboxymethyl)D[Phe(3,4-Cl2)]V[Bip]Y[Orn][dL][Dab][Cha]V[Orn]C[Dab][AEEA][Aun]-OH; thioether N-14) |
| 0.103 µM | CC(C)C[C@H]1NC(=O)[C@H](CCCN)NC(=O)[C@H](Cc2ccc(O)cc2)NC(=O)[C@H](Cc2ccc(-c3ccccc3)cc2)NC(=O)[C@H](Cc2ccc(OCC(=O)O)cc2)NC(=O)[C@H](Cc2ccc(O)cc2)NC(=O)[C@H](CC(=O)O)NC(=O)[C@H](Cc2ccc(OCC(=O)O)cc2)NC(=O)[C@H](CN)NC(=O)CSC[C@@H](C(=O)N[C@@H](CCN)C(=O)NCCOCCOCC(=O)NCCCCCCCCCCC(=O)O)NC(=O)[C@H](CCCN)NC(=O)[C@H](C(C)C)NC(=O)[C@H](CC2CCCCC2)NC(=O)[C@H](CCN)NC1=O [Compound 1311] ({CH2CO}-[Dap]Y(Carboxymethyl)DYY(Carboxymethyl)[Bip]Y[Orn][dL][Dab][Cha]V[Orn]C[Dab][AEEA][Aun]-OH; thioether N-14) |
| 0.105 µM | CC(C)C[C@@H]1NC(=O)[C@H](Cc2c[nH]c3ccccc23)NC(=O)[C@H](CC(=O)O)NC(=O)[C@H](Cc2ccncc2)NC(=O)[C@H](Cc2ccc(OCC(=O)O)cc2)NC(=O)CSC[C@@H](C(=O)Nc2cccc(C(=O)NCCCCCCCCCCC(=O)O)c2)NC(=O)[C@H](CCCN)NC(=O)[C@H](C(C)C)NC(=O)[C@H](CC2CCCCC2)NC(=O)[C@H](CCN)NC(=O)[C@@H](CC(C)C)NC(=O)[C@H](CCCN)NC(=O)[C@H](C(C)C)NC(=O)[C@H](Cc2ccc(-c3ccccc3)cc2)NC1=O [Compound 1312] ({CH2CO}-Y(Carboxymethyl)[4Pal]DWL[Bip]V[Orn][dL][Dab][Cha]V[Orn]C[3Abz][Aun]-OH; thioether N-14) |
| 0.109 µM | CC(C)C[C@H]1NC(=O)[C@H](CCCN)NC(=O)[C@H](Cc2ccc(O)cc2)NC(=O)[C@H](Cc2ccc(-c3ccccc3)cc2)NC(=O)[C@H](Cc2ccc(OCC(=O)O)cc2)NC(=O)[C@H](Cc2ccc(F)c(F)c2)NC(=O)[C@H](CC(=O)O)NC(=O)[C@H](Cc2ccc(OCC(=O)O)cc2)NC(=O)[C@H](CN)NC(=O)CSC[C@@H](C(=O)N[C@@H](CCN)C(=O)NCCOCCOCC(=O)NCCCCCCCCCCC(=O)O)NC(=O)[C@H](CCCN)NC(=O)[C@H](C(C)C)NC(=O)[C@H](CC2CCCCC2)NC(=O)[C@H](CCN)NC1=O [Compound 1313] ({CH2CO}-[Dap]Y(Carboxymethyl)D[Phe(3,4-F2)]Y(Carboxymethyl)[Bip]Y[Orn][dL][Dab][Cha]V[Orn]C[Dab][AEEA][Aun]-OH; thioether N-14) |
| 0.11 µM | CC(C)C[C@@H]1NC(=O)[C@H](Cc2c[nH]c3ccccc23)NC(=O)[C@H](CC(=O)O)NC(=O)[C@H](Cc2ccncc2)NC(=O)[C@H](Cc2ccc(OCC(=O)O)cc2)NC(=O)CSC[C@@H](C(=O)N2CCN(CC(=O)NCCCCCCCCCCC(=O)O)CC2)NC(=O)[C@H](CCCNC(N)=O)NC(=O)[C@H](C(C)C)NC(=O)[C@H](CC2CCCCC2)NC(=O)[C@H](CCN)NC(=O)[C@@H](CC(C)C)NC(=O)[C@H](CCCN)NC(=O)[C@H](C(C)C)NC(=O)[C@H](Cc2ccc(-c3ccccc3)cc2)NC1=O [Compound 1314] ({CH2CO}-Y(Carboxymethyl)[4Pal]DWL[Bip]V[Orn][dL][Dab][Cha]V[Cit]C[X1][Aun]-OH; thioether N-14) |
| 0.0143 µM | Cc1cccc(C[C@@H]2NC(=O)[C@H](CC(=O)O)NC(=O)[C@H](Cc3ccc(OCC(=O)O)cc3)NC(=O)[C@H](CN)NC(=O)CSC[C@@H](C(=O)N[C@@H](CCN)C(=O)NCCCCCCCCCCC(=O)O)NC(=O)[C@@H](CO)NC(=O)[C@H](C(C)C)NC(=O)[C@H](CC3CCCCC3)NC(=O)[C@H](CCN)NC(=O)[C@@H](CC(C)C)NC(=O)[C@H](CCCN)NC(=O)[C@H](CCCNC(N)=O)NC(=O)[C@H](Cc3ccc(-c4ccccc4)cc3)NC(=O)[C@H](C(C)C)NC2=O)c1 [Compound 2000] ({CH2CO}-[Dap]Y(Carboxymethyl)D[Phe(3-Me)]V[Bip][Cit][Orn][dL][Dab][Cha]V[dS]C[Dab][Aun]-OH; thioether N-14) |
| 0.0324 µM | Cc1cccc(C[C@@H]2NC(=O)[C@H](CC(=O)O)NC(=O)[C@H](Cc3ccc(OCC(=O)O)cc3)NC(=O)[C@H](CN)NC(=O)CSC[C@@H](C(=O)N[C@@H](CCCCN)C(=O)NCCCCCCCCCCC(=O)O)NC(=O)[C@@H](CO)NC(=O)[C@H](C(C)C)NC(=O)[C@H](CC3CCCCC3)NC(=O)[C@H](CCN)NC(=O)[C@@H](CC(C)C)NC(=O)[C@H](CCCN)NC(=O)[C@H](C(C)C)NC(=O)[C@H](Cc3ccc(-c4ccccc4)cc3)NC(=O)[C@H](C(C)C)NC2=O)c1 [Compound 2001] ({CH2CO}-[Dap]Y(Carboxymethyl)D[Phe(3-Me)]V[Bip]V[Orn][dL][Dab][Cha]V[dS]CK[Aun]-OH; thioether N-14) |
